Data set [1] can be described thus: Lipophilicity, log D of the compound at pH 7.4 by potentiometric titration method. The data set is classed as physicochemical. The conditions noted are these: buffer.
Data set [2] deals with T1, Nuclear factor erythroid 2-related factor 2 (Homo sapiens) (UniProt Q16236).
T1 sequence (whole entry): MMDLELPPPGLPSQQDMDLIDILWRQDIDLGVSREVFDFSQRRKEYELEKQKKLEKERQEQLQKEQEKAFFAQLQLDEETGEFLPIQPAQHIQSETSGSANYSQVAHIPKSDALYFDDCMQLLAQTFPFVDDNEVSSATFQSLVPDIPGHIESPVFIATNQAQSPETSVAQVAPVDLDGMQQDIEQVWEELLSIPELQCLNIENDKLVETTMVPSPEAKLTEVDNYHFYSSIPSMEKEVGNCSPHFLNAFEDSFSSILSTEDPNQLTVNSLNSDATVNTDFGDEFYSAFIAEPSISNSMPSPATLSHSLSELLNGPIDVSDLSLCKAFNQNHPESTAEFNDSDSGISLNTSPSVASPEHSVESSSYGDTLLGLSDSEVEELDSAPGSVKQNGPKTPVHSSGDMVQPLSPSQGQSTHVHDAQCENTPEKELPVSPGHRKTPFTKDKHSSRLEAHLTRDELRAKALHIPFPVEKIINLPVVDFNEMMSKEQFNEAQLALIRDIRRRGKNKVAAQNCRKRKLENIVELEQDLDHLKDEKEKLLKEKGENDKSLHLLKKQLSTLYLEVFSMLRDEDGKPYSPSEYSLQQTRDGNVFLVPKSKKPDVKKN
The data set is described as follows: Activation of Nrf2 in human HepG2-ARE-C8 cells assessed as upregulation of ARE level at 80 uM after 12 hrs by luciferase reporter gene assay relative to control. The data set is classed as cell-based. (Reporter assays use an easily measured gene product as a stand-in for the process of interest.)

The target in data set [3] is T1, Nuclear factor erythroid 2-related factor 2 (Homo sapiens). The data set is described as follows: Activation of Nrf2 in human HepG2-ARE-C8 cells assessed as upregulation of ARE level at 40 uM after 12 hrs by luciferase reporter gene assay relative to control. The data set is classed as cell-based.
For data set [4] the target is unchanged. Put plainly: Activation of Nrf2 in human HepG2-ARE-C8 cells assessed as upregulation of ARE level at 160 uM after 12 hrs by luciferase reporter gene assay relative to control. The data set is classed as cell-based.
The target is the same in data set [5]. The data set is described as follows: Activation of Nrf2 in human HepG2-ARE-C8 cells assessed as upregulation of ARE level at 20 uM after 12 hrs by luciferase reporter gene assay relative to control. The data set is classed as cell-based.
The subject of the next data set is HCT-116. Put plainly: Cytotoxicity against human HCT116 cells assessed as reduction of cell proliferation at 80 uM after 24 hrs by MTT assay. The data set is classed as cell-based. The note with it: hct-116, 24 h. (Tetrazolium assays rely on reduction of a dye to a coloured formazan, in cell work by metabolically active cells.)
For data set [6], the target named is T1, Nuclear factor erythroid 2-related factor 2 (Homo sapiens). The data set is described as follows: Activation of Nrf2 in human HepG2-ARE-C8 cells assessed as upregulation of ARE level at 2 uM after 12 hrs by luciferase reporter gene assay relative to control. The format is cell-based.
The nature of data set [7]: Intrinsic aqueous solubility of the compound by potentiometric titration method. The note with it: read-out: Intrinsic_solubility. The format is physicochemical.
The target in data set [8] is T1, Nuclear factor erythroid 2-related factor 2 (Homo sapiens). The data set is described as follows: Activation of Nrf2 in human HepG2-ARE-C8 cells assessed as upregulation of ARE level at 0.2 uM after 12 hrs by luciferase reporter gene assay relative to control. The data set is classed as cell-based.
Data set [9] in a line: Permeability of the compound at pH 7.4 by PAMPA. The conditions noted are these: read-out: permeability. The format is physicochemical.
In data set [10] the target is T1, Nuclear factor erythroid 2-related factor 2 (Homo sapiens). The data set is described as follows: Activation of Nrf2 in human HepG2-ARE-C8 cells assessed as upregulation of ARE level at 0.02 uM after 12 hrs by luciferase reporter gene assay relative to control. The format is cell-based.
Data set [11] can be described thus: Dissociation constant, pKa of the compound by potentiometric titration method. The format is physicochemical.

The structures appear in SMILES notation. ≈ marks a conversion by molar mass, not a printed value.

These results are taken from ChEMBL document CHEMBL3585308, “Discovery and Modification of in Vivo Active Nrf2 Activators with 1,2,4-Oxadiazole Core: Hits Identification and Structure-Activity Relationship Study” (J Med Chem, 2015).

Usually logD stands for the decadic logarithm of the distribution of all forms, ionised or not, between an organic phase and buffer at a given pH. By pKa is commonly meant the pH at which an ionisable group is half protonated. Low values mean a group that gives up its proton readily, high ones a group that holds its proton tightly. `c1ccc(-c2nc(-c3ccc4nc[nH]c4c3)no2)cc1`: in data set [1], the logD turned out to be 3.66. For the same molecule, the fold change (FC) was found to be 3.19 in [2]; 23.7 in data set [3]; 4.46 in [4]; 21.4 in [5]; 14.2 in data set [6]; 4.72 in data set [8]. In addition, the fold change (FC) in data set [10] stood at 1.49. Moreover, the Activity entry with HCT-116 is listed as “Non-toxic”. Further, the solubility in [7] worked out at 12.3 µM (≈ 3.23 µg/mL). The Papp in data set [9] turned out to be 5.26 ×10⁻⁶ cm/s. In data set [11], the pKa is 3.69.

`Clc1ccc(-c2nc(-c3ccc4nc[nH]c4c3)no2)cc1` yielded a logD in data set [1] of 3.71. In addition, the fold change (FC) in [2] came to 14.1; in [3], 18.5; in [4] it was 14.2; in data set [5], 15.5; in data set [6] it was 7.25; in data set [8], 2.79. For the same molecule, in data set [10], the fold change (FC) was found to be 2.03. In addition, the Activity result in the data set with HCT-116 is “Non-toxic”. Moreover, the solubility in data set [7] was 49.5 µM (≈ 14.7 µg/mL). The Papp in [9] was 10.3 ×10⁻⁶ cm/s. The molecule also displayed a pKa in [11] of 3.77.

On to `c1ccc2cc(-c3nc(-c4ccc5nc[nH]c5c4)no3)ccc2c1`, for which, in [1], the logD came out at 5.56. Besides, the fold change (FC) in [2] turned out to be 13.4; in [3], 7.57; in [4], 16.2; in [5] it was 6.72; in [6], 3.47; in data set [8] it was 1.23. In addition, the fold change (FC) in data set [10] was determined as 1.42. The Activity entry in the data set with HCT-116 is recorded as “Non-toxic”. Also, the solubility in data set [7] was 2.5 µM (≈ 0.781 µg/mL). The Papp in [9] was 8.64 ×10⁻⁶ cm/s. In data set [11], this molecule displayed a pKa of 4.22.

With `CC(C(=O)O)c1cccc(C(=O)c2ccccc2)c1` (stereo not drawn) [KETOPROFEN], the Papp in [9] stood at 1.93 ×10⁻⁶ cm/s.

With `c1cc2ccc(-c3nc(-c4ccc5nc[nH]c5c4)no3)cc2[nH]1`, the fold change (FC) worked out at 11.6 in [2]; 11 in [3]; 8.88 in [4]; 10.2 in [5]; 1.77 in data set [6]; 1.5 in [8]. The fold change (FC) in data set [10] was 1.22. Moreover, in the data set on HCT-116, the Activity entry is recorded as “Non-toxic”.

As for `CC(C)NCC(O)COc1cccc2ccccc12` (stereo not drawn) [PROPRANOLOL], the Papp in data set [9] turned out to be 117 ×10⁻⁶ cm/s.

For `c1ccc(-c2ccc(-c3nc(-c4ccc5nc[nH]c5c4)no3)cc2)cc1`, the fold change (FC) in [2] was 15; in data set [3] it was 10.7; in data set [4] it was 11; in data set [5], 2; in [6], 1.52; in [8] it was 1.54. In [10], the fold change (FC) was 1.18. For the same molecule, in the data set with HCT-116, the Activity result is “Non-toxic”.

Take `COc1cccc(-c2nc(-c3ccc4nc[nH]c4c3)no2)c1`: the fold change (FC) in data set [2] is 12.4; in data set [3], 14.4; in data set [4] it was 8.38; in [5] it was 12.4; in [6], 3.16; in data set [8] it was 1.95. The fold change (FC) in data set [10] was found to be 1.79. For the same molecule, the Activity result in the data set on HCT-116 was “Non-toxic”.

In the case of `FC(F)(F)c1cccc(-c2nc(-c3ccc4nc[nH]c4c3)no2)c1`, the fold change (FC) in [2] came to 3.45; in data set [3] it was 5.65; in data set [4], 2.94; in data set [5], 10.5; in [6], 13.9; in data set [8] it was 8.04. The fold change (FC) in [10] worked out at 2.56. Also, the Activity entry with HCT-116 is on record as “Non-toxic”.

With `CCc1ccc(-c2nc(-c3ccc4nc[nH]c4c3)no2)cc1`, the fold change (FC) in data set [2] was determined as 4.82; in [3] it was 5.88; in data set [4], 3.69; in [5], 9.34; in data set [6], 2.56; in data set [8], 1.75. The fold change (FC) in data set [10] amounted to 1.37. Moreover, the Activity result in the data set on HCT-116 is listed as “Non-toxic”.

Take `O=[N+]([O-])c1cccc(-c2nc(-c3ccc4nc[nH]c4c3)no2)c1`: the fold change (FC) in data set [2] stood at 16.5; in [3], 21.8; in [4] it was 11.5; in data set [5], 11.6; in data set [6], 4.74; in data set [8] it was 1.56. In data set [10], the fold change (FC) stood at 1.43. Moreover, the Activity entry in the data set with HCT-116 is reported as “Non-toxic”.

In turn, `FC(F)(F)c1ccccc1-c1nc(-c2ccc3nc[nH]c3c2)no1` came in with a logD in [1] of 4.01. Besides, the fold change (FC) worked out at 17.9 in [2]; 24.2 in data set [3]; 3.73 in data set [4]; 19.1 in data set [5]; 9.01 in [6]; 2.28 in [8]. For the same molecule, the fold change (FC) in data set [10] came to 1.23. For the same molecule, the Activity result with HCT-116 is listed as “Non-toxic”. The solubility in data set [7] worked out at 14 µM (≈ 4.62 µg/mL). Moreover, in data set [9], the Papp is 4.78 ×10⁻⁶ cm/s. In [11], this molecule gave a pKa of 4.

As to `COc1ccc(OC)c(-c2nc(-c3ccc4nc[nH]c4c3)no2)c1`, the fold change (FC) came out at 3.7 in [2]; 4.24 in data set [3]; 5.2 in data set [4]; 4.48 in [5]; 3.21 in [6]; 2.96 in data set [8]. Moreover, in data set [10], the fold change (FC) turned out to be 1.7. For the same molecule, the Activity result in the data set with HCT-116 is recorded as “Non-toxic”.

`c1ccc(-c2nc(-c3ccc4nc[nH]c4c3)no2)nc1`: the fold change (FC) in data set [2] worked out at 2.65; in [3], 7.51; in data set [4], 2.55; in [5] it was 9.49; in data set [6], 5.09; in [8], 3.42. In data set [10], the fold change (FC) is 1.06. For the same molecule, in the data set on HCT-116, the Activity result is “Non-toxic”.

Regarding `Cc1cccc(-c2nc(-c3ccc4nc[nH]c4c3)no2)c1`, the fold change (FC) in data set [2] came to 17.3; in data set [3], 10.4; in [4] it was 8.99; in [5] it was 14.2; in [6], 4.84; in [8], 1.94. Further, the fold change (FC) in data set [10] was found to be 1.44. The Activity result in the data set with HCT-116 is given as “Non-toxic”.

With `Brc1ccc(-c2nc(-c3ccc4nc[nH]c4c3)no2)cc1`, the logD in data set [1] is 3.54. The fold change (FC) in data set [2] came to 2.75; in data set [3] it was 3.44; in [4] it was 2.49; in [5], 13.4; in [6], 12.7; in [8] it was 2.36. Also, the fold change (FC) in data set [10] stood at 1.31. In addition, the Activity entry with HCT-116 is “Non-toxic”. In addition, the solubility in data set [7] came out at 35.4 µM (≈ 12.1 µg/mL). For the same molecule, the Papp in data set [9] worked out at 11.2 ×10⁻⁶ cm/s. Also, in [11], the pKa was 3.25.

Take `c1cc(-c2nc(-c3ccc4nc[nH]c4c3)no2)ccn1`: the fold change (FC) in data set [2] was found to be 5.99; in data set [3], 4.95; in data set [4], 10.6; in data set [5], 4.36; in data set [6], 4.27; in data set [8], 2.54. Besides, the fold change (FC) in data set [10] worked out at 1.91. Further, in the data set on HCT-116, the Activity result is recorded as “Non-toxic”.

`N#Cc1ccc(-c2nc(-c3ccc4nc[nH]c4c3)no2)cc1`: the fold change (FC) in data set [2] is 10; in data set [3], 11.9; in data set [4] it was 12.7; in data set [5] it was 8.12; in [6], 1.35; in data set [8], 1.25. In addition, in [10], the fold change (FC) came out at 1.22. Moreover, the Activity entry with HCT-116 is recorded as “Non-toxic”.

Consider `CCCCc1ccc(-c2nc(-c3ccc4nc[nH]c4c3)no2)cc1`, for which the fold change (FC) in data set [2] was 14.8; in data set [3] it was 37.6; in data set [4], 12; in data set [5], 30.8; in data set [6], 10.9; in data set [8], 2.08. The fold change (FC) in data set [10] turned out to be 1.55. Besides, in the data set on HCT-116, the Activity entry was “Non-toxic”.
